Laboratory results as given in US7442554B2, “Compositions and methods involving glucocorticoid receptor site II” (Bristol-Myers Squibb Company, priority 2002, dated 2008).
“Also recorded” adds a separate entry of the source. Like-named read-outs stand apart in the source and are kept apart here.

Tests used:
Site II on GR = target: T1, Site II on GR (Homo sapiens, UniProt P04150); test: Indirect Site II assay: modified FITC-dexamethasone FP assay with Compound D; format: binding
T1 construct: recombinantly expressed human full-length glucocorticoid receptor; purchased Panvera Co., Madison, Wis
T1 sequence (P04150 1-777): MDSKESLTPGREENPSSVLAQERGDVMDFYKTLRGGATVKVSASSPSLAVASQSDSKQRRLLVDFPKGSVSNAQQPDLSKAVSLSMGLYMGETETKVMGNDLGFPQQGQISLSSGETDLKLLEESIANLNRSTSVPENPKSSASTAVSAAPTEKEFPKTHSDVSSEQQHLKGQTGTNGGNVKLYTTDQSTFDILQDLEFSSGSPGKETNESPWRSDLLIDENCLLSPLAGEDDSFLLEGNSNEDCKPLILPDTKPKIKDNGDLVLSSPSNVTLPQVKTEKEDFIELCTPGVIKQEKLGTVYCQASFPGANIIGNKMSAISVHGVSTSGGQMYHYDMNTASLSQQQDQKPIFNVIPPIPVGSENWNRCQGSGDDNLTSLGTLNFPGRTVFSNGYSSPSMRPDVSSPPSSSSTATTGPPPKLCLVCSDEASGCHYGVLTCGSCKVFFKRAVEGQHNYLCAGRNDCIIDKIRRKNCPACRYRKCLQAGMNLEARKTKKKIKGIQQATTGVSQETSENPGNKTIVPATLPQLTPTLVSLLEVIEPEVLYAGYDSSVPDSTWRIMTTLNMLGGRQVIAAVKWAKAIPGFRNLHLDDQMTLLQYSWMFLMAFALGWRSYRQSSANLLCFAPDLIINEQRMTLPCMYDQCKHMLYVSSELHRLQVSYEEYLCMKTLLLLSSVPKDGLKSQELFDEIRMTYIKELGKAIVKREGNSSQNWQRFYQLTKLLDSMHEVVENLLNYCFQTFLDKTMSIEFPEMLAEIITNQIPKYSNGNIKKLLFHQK
Description: In order to measure the binding of putative Site II compounds to GR we utilized the Glucocorticoid receptor competitor assay kit (Panvera Co., Madison, Wis.) in a modified version of the FITC-dexamethasone fluorescence polarization assay described in Example 2. In this assay, Compound D was added at a concentration of 200 nM, which yields approximately 50% inhibition of FITC-dexamethasone binding. Compound D (an R enantiomer) is Compound 50 of Example 1. Compound D is a ligand of Site II that inhibits via Site II FITC-dexamethasone binding to GR. […] These competitor Site II ligands, all compounds of Example 1 and all S enantiomers, were: Compound A; Compound C, which is the S enantiomer of Compound D; and Compound E, yet another S enantiomer of Example 1. If the competitor compound binds to Site II and displaces Compound D, then FITC-dexamethasone should rebind to GR. […] This assay can therefore measure the relative binding of compounds to the Site II on GR.

[1] = target: T2, human full-length glucocorticoid receptor (Homo sapiens, UniProt P04150); test: GR Site I binding assay (FITC-dexamethasone fluorescence polarization, Panvera kit)
T2 construct: recombinantly expressed human full-length glucocorticoid receptor; purchased Panvera Co., Madison, Wis
T2 sequence (P04150 1-777): T1 sequence (P04150 1-777)
Description: In order to measure the binding of compounds to Site I on the glucocorticoid receptor a commercially available kit was used (Glucocorticoid receptor competitor assay kit, Panvera Co., Madison, Wis.). Briefly, a cell lysate containing recombinantly expressed human full-length glucocorticoid receptor was mixed with a fluorescently labeled glucocorticoid (4 nM FITC-dexamethasone) plus or minus test molecule. After one hour at room temperature, the fluorescence polarization (FP) of the samples were measured.

[2] = system: AP-1 induced transcriptional activity; test: Cellular transrepressional assay (AP-1 luciferase reporter, A549 cell, PMA); format: cell-based; settings: for IC50: read-out: IC50 for transrepression
Description: To measure the ability of test molecules to inhibit AP-1 induced transcriptional activity we utilized an A549 cell which was stably transfected with a plasmid containing 7×AP-1 DNA binding sites (pAP-1-Luc plasmid, Stratagene Co. La Jolla, Calif.) followed by the gene for luciferase. Cells were activated with 10 ng/ml of phorbol myristic acid (PMA) plus or minus test molecules for 7 hours. After 7 hours a luciferase reagent was added to measure luciferase enzymatic activity in the cell. After a 10 minute incubation of luciferase reagent with cells, luminescence was measured in a TopCount luminescence counter. Repression of AP-1 activity was calculated as the percentage decrease in the signal induced by PMA alone. […] IC50s were determined by using standard curve fitting methods such as Excel fit (Microsoft Co.). An IC50 is the test molecule concentration which causes a 50% repression of transcription, i.e. a 50% reduction of AP-1 activity.

[3] = target: T3, GAL4 DNA binding domain linked to the ligand binding domain of GR (Homo sapiens, UniProt P04150); test: Cellular transcriptional assay (HeLa, GAL4-GR LBD, luciferase); format: cell-based
T3 construct: expressed in transfected cells; host or cells: HeLa (stably transfected)
T3 sequence (P04150 524-758 limits assumed): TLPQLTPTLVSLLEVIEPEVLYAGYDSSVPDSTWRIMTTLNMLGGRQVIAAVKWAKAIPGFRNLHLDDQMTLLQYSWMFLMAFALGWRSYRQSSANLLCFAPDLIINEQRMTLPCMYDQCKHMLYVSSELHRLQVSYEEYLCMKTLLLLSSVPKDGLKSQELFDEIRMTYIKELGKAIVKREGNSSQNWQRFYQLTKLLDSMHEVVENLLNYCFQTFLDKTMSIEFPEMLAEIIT
Description: In order to measure the ability of compounds to induce DNA binding and transcriptional activation in cells the following assay was performed. A HeLa cell line was stably transfected with a gene expressing a fusion protein consisting of the GAL4 DNA binding domain linked to the ligand binding domain of GR. Also transfected into these cells was a DNA binding site for GAL4 (5 repetitions of a 17-mer GAL4 binding site) linked to the beta-globin reporter in front of the luciferase gene. See Eisenmann, G., Cheynel, and Gronemeyer, H. (1995), Quand les cellules scintillent, Biofutur (Le Technoscope), 151: 8. […] After 20 hours the level of luciferase activity was measured using a Steady Glo Luciferase assay system (Promega Co., Madison, Wis.). […] EC50s were calculated by using standard curve fitting methods such as Excel Fit (Microsoft Co., Redmond, Wash.). An EC50 is the test molecule concentration required to cause a 50% stimulation of transcription.

[4] = system: tyrosine amino transferase mRNA; test: cells; settings: read-out: EC50 for induction of tyrosine amino transferase mRNA
Description: A second assay which measures the ability of compounds to induce the expression of tyrosine amino transferase mRNA in liver cells was also utilized to determine the ability of compounds to induce DNA binding. […] Test molecules were analyzed in the concentration range from 0.1 nM to 40 μM.

SMILES | displacement of Compound D allowing FITC-dexamethasone to rebind to GR (Site II on GR; Compound D at 200 nM) | inhibition of dexamethasone binding to GR by the compound on its own [1] | inhibition at 0.2 µM (Site II on GR; 200 nM, read-out: inhibition of FITC-dexamethasone binding) [%] | IC50 ([2]; Homo sapiens, A549, absence of Compound A) [nM] | IC50 ([2]; Homo sapiens, A549, presence of 800 nM Compound A) [nM] | inhibition at 0.8 µM ([2]; Homo sapiens, A549, presence of 800 nM Compound A, read-out: percent inhibition) [%] | maximum percent inhibition ([2]; absence of Compound A) [%] | % stimulation ([3]; absence of Compound A) [%] | % stimulation ([3]; presence of Compound A) [%] | EC50 [4] [nM]
Cc1ccc(-c2csc(NC(=O)C3(C)CC4(C#N)c5ccccc5C3c3ccccc34)n2)c2ccccc12 (centres unmarked) [Compound C] | effective at displacing Compound D | do not inhibit dexamethasone binding; also recorded: do not inhibit dexamethasone on their own | – | – | – | – | – | – | – | –
Cc1ccc(-c2csc(NC(=O)C3(C)CC4(C#N)c5ccccc5C3c3ccccc34)n2)c2ccccc12 (centres unmarked) [Compound D] | – | does inhibit dexamethasone | ~50 | – | – | – | – | – | – | –
C[C@@H]1C[C@H]2[C@@H]3CCC4=CC(=O)C=C[C@]4(C)[C@@]3(F)[C@@H](O)C[C@]2(C)[C@@]1(O)C(=O)CO [dexamethasone] | – | – | – | 3.4 | 1.2 | 100 | 75 | 100 | 47 | ~50
